# According to US20150080305A1, “APPLICATION OF INITIAL DOSES OF LHRH ANALOGUES AND MAINTENANCE DOSES OF LHRH ANTAGONISTS FOR THE TREATMENT OF HORMONE-DEPENDENT CANCERS AND CORRESPONDING PHARMACEUTICAL KITS” (AETERNA ZENTARIS GmbH, priority 2006, published 2015):
# Square brackets hold non-standard residues; d marks the D form. Peptide text beside a SMILES is read from it. dPhe(4-Cl) = N[C@H](Cc1ccc(Cl)cc1)C(=O)O; d2Nal = N[C@H](Cc1ccc2ccccc2c1)C(=O)O; dCit = NC(=O)NCCC[C@@H](N)C(=O)O; d3Pal = N[C@H](Cc1cccnc1)C(=O)O
# Key:
# hormone concentration = conditions: volunteer tests; cited from earlier work
# testosterone levels = assay: Testosterone levels in prostate cancer patients under initial/maintenance dose regimen; type: in vivo, human; conditions: for testosterone levels during first period: prostate cancer patients
# Procedure: (§1) 130 mg ozarelix is given as a single monthly initial dose per i.m. injection every 4 weeks to patients suffering from prostate cancer for a first period of 3 months. […] Subsequently, patients are treated with single monthly maintenance doses of 30 mg ozarelix given per i.m. injection over a period of 6 months. […] The treatment scheme is then repeated continuously (chronic treatment).
# (§2) […] ozarelix is given as a single initial dose per i.m. injection once every 3 months to patients suffering from prostate cancer for a first period of 3 to 6 months. […] Subsequently, patients are treated with single monthly maintenance doses of 40 mg ozarelix given per i.m. injection over a period of 6 months. […] The treatment scheme is then repeated continuously (chronic treatment).
# (§3) 3.75 mg leuprorelin (leuprolide) are given as a single monthly initial dose per i.m. injection every 4 weeks to patients suffering from prostate cancer for a first period of 6 months. […] Subsequently, patients are treated with single monthly maintenance doses of 20 mg ozarelix given per i.m. injection over a period of 9 months. […] The treatment scheme is then repeated continuously (chronic treatment).
# (§4) 11.25 mg leuprorelin (leuprolide) are given as a single initial dose per i.m. injection once every three months to patients suffering from prostate cancer for a first period of 3 months. […] Subsequently, patients are treated with single monthly maintenance doses of 50 mg ozarelix given per i.m. injection over a period of 3 months. […] The treatment scheme is then repeated continuously (chronic treatment).
# PSA levels = PSA levels in prostate cancer patients under initial/maintenance dose regimen; type: in vivo, human; conditions: for PSA levels decrease during first period: prostate cancer patients
# Procedure: as §1, §2, §3, §4
# [1] = Example 3: 3.75 mg single monthly initial dose i.m. every 4 weeks, first period of 6 months
# [2] = Example 4: 11.25 mg single initial dose i.m. once every three months, first period of 3 months
# [3] = Example 1: 130 mg single monthly initial dose i.m. every 4 weeks, first period of 3 months
# [4] = Example 1: single monthly maintenance doses of 30 mg i.m. over 6 months, after 130 mg ozarelix initial doses
# [5] = Example 2: 00 mg single initial dose i.m. once every 3 months, first period of 3 to 6 months
# [6] = Example 2: single monthly maintenance doses of 40 mg i.m. over 6 months, after ozarelix initial doses
# [7] = Example 3: single monthly maintenance doses of 20 mg i.m. over 9 months, after 3.75 mg leuprorelin initial doses
# [8] = Example 4: single monthly maintenance doses of 50 mg i.m. over 3 months, after 11.25 mg leuprorelin initial dose
molecule,measurement,setting,value
CC(=O)N[C@H](Cc1ccc2ccccc2c1)C(=O)N[C@H](Cc1ccc(Cl)cc1)C(=O)N[C@H](Cc1cccnc1)C(=O)N[C@@H](CO)C(=O)N[C@@H](Cc1ccc(O)cc1)C(=O)N[C@H](CCCNC(N)=O)C(=O)N[C@@H](CC(C)C)C(=O)N[C@@H](CCCNC(=N)N)C(=O)N1CCC[C@H]1C(=O)N[C@H](C)C(N)=O [cetrorelix] (Ac-[d2Nal][dPhe(4-Cl)][d3Pal]SY[dCit]LRP[dA]-NH2),dose necessary for complete suppression of the hormone concentration to castration level,hormone concentration,10 mg daily
"CCNC(=O)[C@@H]1CCCN1C(=O)[C@H](CCCNC(=N)N)NC(=O)[C@H](CC(C)C)NC(=O)[C@@H](CC(C)C)NC(=O)[C@H](Cc1ccc(O)cc1)NC(=O)[C@H](CO)NC(=O)[C@H](Cc1c[nH]c2ccccc12)NC(=O)[C@H](Cc1c[nH]cn1)NC(=O)[C@@H]1CCC(=O)N1 [leuprorelin, reference compound]",testosterone levels during first period,testosterone levels; [1],quickly reach castration level
same,testosterone levels during first period,testosterone levels; [2],quickly reach castration level
same,PSA levels decrease during first period,PSA levels; [1],up to 95%
same,PSA levels decrease during first period,PSA levels; [2],up to 95%
ozarelix,testosterone levels during first period,testosterone levels; [3],quickly reach castration level
same,testosterone levels during second period,testosterone levels; [4],above 0.5 ng/mL
same,testosterone levels during first period,testosterone levels; [5],quickly reach castration level
same,testosterone levels during second period,testosterone levels; [6],above 0.5 ng/mL
same,testosterone levels during second period,testosterone levels; [7],above 0.5 ng/mL
same,testosterone levels during second period,testosterone levels; [8],above 0.5 ng/mL
same,PSA levels decrease during first period,PSA levels; [3],up to 95%
same,PSA levels during second period,PSA levels; [4],remain stably low
same,PSA levels decrease during first period,PSA levels; [5],up to 95%
same,PSA levels during second period,PSA levels; [6],remain stably low
same,PSA levels during second period,PSA levels; [7],remain stably low
same,PSA levels during second period,PSA levels; [8],remain stably low
